According to patent US20080220446A1, “Method for Detecting and/or Removing Protein and/or Peptide Comprising a Cross-Beta Structure From an Aqueous Solution Comprising a Protein” (priority 2005, published 2008):
pKd: −log10 of the molar value. Values joined by “and” are separate entries in the source; they are usually repeats but may differ in a detail not shown here. Identical values can stand only once.

Key:
platelets = experiment: Aggregometric assay with washed platelets; type: cell-based, human
Experimental: The presence of protein(s) and/or peptide(s) with amyloid-like misfolded protein conformation on activated blood platelets was tested with washed platelets in an aggregometric assay. Freshly drawn human aspirin free blood was mixed gently with citrate buffer to avoid coagulation. Blood was spinned for 15 minutes at 150*g at 20° C. and supernatant was collected; platelet rich plasma (PRP). […] After spinning down the platelets upon centrifugation for 15 minutes at 330*g at 20° C., the pellet was resuspended in HEPES-Tyrode buffer pH 6.5. Prostacyclin was added to a final concentration of 10 ng/ml, and the solution was centrifuged for 15 minutes at 330*g at 20° C., with a soft brake. The pellet was resuspended in HEPES-Tyrode buffer pH 7.2 in a way that the final platelet number was adjusted to 200,000/μl. Platelets were kept at 37° C. for at least 30 minutes, before use in the assays, to ensure that they were in the resting state.
For the aggregometric assays, 400 μl platelet solution was added to a glass tube with 100 μl containing the agonist of interest, fibrinogen and CaCl2. Final concentrations of fibrinogen and CaCl2 were 0.5 mg/ml and 3 mM, respectively. A stirring magnet was added and the apparatus (Whole-blood aggregometer, Chrono-log, Havertown, Pa., USA) was blanked. Aggregation was followed in time by measuring the absorbance of the solution, that will decrease in time upon platelet aggregation. As a positive control, 0.5 U/ml thrombin was used, or TRAP. Aggregation was followed for 10 minutes. Influence of 200 μM Thioflavin T, 200 μM Congo red or 1 μM tPA on platelet aggregation was analyzed.

[1] = molecular target: T1, LRP cl-IV binding to BSA-AGE (Bos taurus, UniProt P02769); experiment: ELISA, interference with LRP cl-IV binding to BSA-AGE; parameters: species or system human; conditions: concentration series, 50 times diluted LRP cl-IV medium
T1 construct: made in house; host or cells: HEK293E/S (LRP cl-IV, culture supernatant)
T1 sequence (P02769 25-607): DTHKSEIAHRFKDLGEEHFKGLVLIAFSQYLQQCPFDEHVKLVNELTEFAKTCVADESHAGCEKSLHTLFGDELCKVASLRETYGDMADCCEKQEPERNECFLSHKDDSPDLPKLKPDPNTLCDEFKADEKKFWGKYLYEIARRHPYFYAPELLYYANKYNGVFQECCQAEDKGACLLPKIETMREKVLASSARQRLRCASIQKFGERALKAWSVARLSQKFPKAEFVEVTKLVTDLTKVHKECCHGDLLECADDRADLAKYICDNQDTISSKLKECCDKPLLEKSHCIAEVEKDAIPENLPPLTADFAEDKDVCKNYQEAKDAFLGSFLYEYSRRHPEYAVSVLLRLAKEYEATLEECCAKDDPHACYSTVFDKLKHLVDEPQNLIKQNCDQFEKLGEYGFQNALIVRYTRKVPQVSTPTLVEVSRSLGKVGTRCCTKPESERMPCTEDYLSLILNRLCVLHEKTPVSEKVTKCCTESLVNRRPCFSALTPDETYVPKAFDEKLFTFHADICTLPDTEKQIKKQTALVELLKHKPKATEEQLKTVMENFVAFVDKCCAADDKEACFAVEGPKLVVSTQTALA
Experimental: To test whether amyloid-like crossbeta structure binding compounds tPA, Congo red, Thioflavin T and Thioflavin S interfere with LRP cl-IV binding to BSA-AGE, concentration series of the potential inhibitory amyloid binding moieties were tested in the presence of 50 times diluted medium containing LRP cl-IV. The following inhibitors were used: tPA, Congo red, Thioflavin T (ThT) and Thioflavin S (ThS). As a control to tPA, K2P tPA, which lacks the amyloid-like misfolded protein binding finger domain, was included in the analyses. The influence of tPA and K2P tPA was tested in the presence of 10 mM ε-amino caproic acid to avoid binding of the kringle2 domain of tPA and K2P tPA to lysine- and arginine residues. Binding buffer and K2P tPA serve as negative controls in these inhibition studies. The concentration series was measured in triplicate, the values averaged and standard deviations calculated. Background signals obtained with buffer-coated wells were subtracted. Signals obtained with binding of LRP cluster IV to BSA-AGE was set arbitrarily to a reference binding of 100% and signals obtained with the concentration series of misfolded protein binding moieties and K2P tPA were calculated based on this set reference.

[2] = tested on: tPA binding to amyloid-like aggregates; conditions: ELISAs; patent application P57716EP00 and unpublished data; cited from earlier work
factor XII = molecular target: T2, factor XII (Homo sapiens, UniProt P00748); experiment: Factor XII / prekallikrein activation assay (Chromozym-PK); type: biochemical
T2 construct: purified human factor XII from plasma (Calbiochem); purchased Calbiochem; host or cells: human plasma
T2 sequence (P00748 20-615): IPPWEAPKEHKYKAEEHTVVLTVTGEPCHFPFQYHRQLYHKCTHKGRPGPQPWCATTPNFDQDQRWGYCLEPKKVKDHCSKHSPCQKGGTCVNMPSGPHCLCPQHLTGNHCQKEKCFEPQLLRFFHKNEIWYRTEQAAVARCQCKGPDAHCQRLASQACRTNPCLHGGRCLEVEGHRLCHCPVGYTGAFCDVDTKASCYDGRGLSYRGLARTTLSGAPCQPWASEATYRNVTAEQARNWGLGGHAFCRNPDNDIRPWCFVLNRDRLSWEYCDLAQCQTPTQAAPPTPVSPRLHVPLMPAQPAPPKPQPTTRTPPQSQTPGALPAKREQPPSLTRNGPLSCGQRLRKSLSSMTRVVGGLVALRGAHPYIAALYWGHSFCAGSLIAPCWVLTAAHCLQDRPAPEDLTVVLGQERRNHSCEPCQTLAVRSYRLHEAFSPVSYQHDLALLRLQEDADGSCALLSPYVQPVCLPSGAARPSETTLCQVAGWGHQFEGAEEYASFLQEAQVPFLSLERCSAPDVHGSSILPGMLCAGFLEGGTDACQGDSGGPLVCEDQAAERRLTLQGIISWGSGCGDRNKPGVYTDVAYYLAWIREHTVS
Experimental: Plasmin (Pls) activity was assayed as described^16. Peptides and proteins that were tested for their stimulatory ability were regularly used at 100 μg ml^−1. […] Chromogenic substrate S-2251 (Chromogenix, Instrumentation Laboratory SpA, Milano, Italy) was used to measure Pls activity. Conversion of zymogen factor XII (#233490, Calbiochem, EMD Biosciences, Inc., San Diego, Calif.) to proteolytically active factor XII (factor XIIa) was assayed by measurement of the conversion of chromogenic substrate Chromozym-PK (Roche Diagnostics, Almere, The Netherlands) by kallikrein. Chromozym-PK was used at a concentration of 0.3 mM. Factor XII, human plasma prekallikrein (#529583, Calbiochem) and human plasma cofactor high-molecular weight kininogen (#422686, Calbiochem) were used at concentrations of 1 μg ml^−1. […] Assays were performed using microtiter plates (Costar, Cambridge, Mass., USA). Peptides and proteins were tested for their ability to activate factor XII. […] The conversion of Chromozym-PK was recorded kinetically at 37° C. for at least 60 minutes. […]
Formulated protein therapeutics were obtained from the local hospital pharmacy and were used as supplied by the manufacturers. […] Enhancement in fluorescence of ThT and Congo red was measured with all formulated protein therapeutics. […]

[3] = Congo red fluorescence of protein solutions; type: physicochemical
Experimental: Background signals from buffer, buffer with Congo red and protein/peptide solution without Congo red were subtracted from corresponding measurements with protein solution incubated with Congo red. Fluorescence was measured in triplicate on a Hitachi F-4500 fluorescence spectrophotometer (Ltd., Tokyo, Japan).
(§1) Formulated protein therapeutics were obtained from the local hospital pharmacy and were used as supplied by the manufacturers. […] Lyophilized therapeutics were dissolved according to the manufacturers recommendations. GH, zinc-insulin, Cealb and gelatin were stored at −20, 4, room temperature, 37 and 65° C. Other protein therapeutics were only kept at 4° C., and assayed for the presence of cross-β structure at shown time points. Enhancement in fluorescence of ThT and Congo red was measured with all formulated protein therapeutics. For this purpose, proteins were diluted to the indicated concentrations. […] Zinc-insulin was diluted tenfold in the activation assay, GH was diluted to a final concentration of 500 μg ml^−1. Activation of factor XII and prekallikrein by the therapeutics was tested in the chromogenic factor XII assay (see above). […] After coating, plates were blocked with Blocking Reagent (Roche Diagnostics, Almere, The Netherlands).

tPA [4] = molecular target: T3, tPA (Homo sapiens, UniProt P00750); experiment: tPA ELISA with coated protein therapeutics; type: binding; conditions: ELISA, stored at the recommended temperature of 4° C.
T3 sequence (P00750 36-562): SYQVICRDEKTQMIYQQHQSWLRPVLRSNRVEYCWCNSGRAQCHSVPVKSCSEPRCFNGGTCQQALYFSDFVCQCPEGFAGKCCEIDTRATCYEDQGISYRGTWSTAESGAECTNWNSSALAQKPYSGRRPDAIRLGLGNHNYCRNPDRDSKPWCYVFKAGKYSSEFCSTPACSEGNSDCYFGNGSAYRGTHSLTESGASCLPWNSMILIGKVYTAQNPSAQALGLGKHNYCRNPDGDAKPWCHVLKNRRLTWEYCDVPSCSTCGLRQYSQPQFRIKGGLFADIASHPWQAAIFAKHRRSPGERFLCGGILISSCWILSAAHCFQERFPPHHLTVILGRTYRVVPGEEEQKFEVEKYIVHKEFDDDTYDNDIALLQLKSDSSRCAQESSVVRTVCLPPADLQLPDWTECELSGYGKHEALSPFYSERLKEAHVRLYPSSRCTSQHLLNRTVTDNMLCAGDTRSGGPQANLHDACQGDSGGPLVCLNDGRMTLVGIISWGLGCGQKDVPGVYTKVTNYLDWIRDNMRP
Experimental: as §1

Fn F4-5 = molecular target: T4, Fn F4-5 (Homo sapiens, UniProt P02751); experiment: Biacore surface plasmon resonance, binding to immobilized Fn F4-5
T4 construct: amino-acids NH2—I182-V276-COOH of Fn F4-5; made in house; host or cells: Saccharomyces cerevisiae
T4 sequence (P02751 182-276): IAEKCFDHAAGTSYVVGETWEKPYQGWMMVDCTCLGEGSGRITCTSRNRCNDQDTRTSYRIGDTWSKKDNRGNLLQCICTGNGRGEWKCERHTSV
Experimental: Binding of cross-β structure containing peptides/proteins was studied using surface plasmon resonance technology with a Biacore 2000 apparatus (Biacore AB, Uppsala, Sweden). A standardized amine coupling procedure was used to couple proteins with F domains to a CM5 chip (Biacore AB, Uppsala, Sweden). First, the dextran surface of the chips was activated by a 35 μl injection with a 1:1 mixture of 0.1 M N-hydroxysuccinimide (NHS) and 0.4 M N-ethyl-N′-(dimethylaminopropyl)carbodiimide (EDC) at a flow rate of 5 μl min.^−1. Then, the proteins were covalently coupled to the activated dextran surface. Remaining activated groups in each of the four flow channels were blocked by injection of 35 μl of 1 M ethanolamine hydrochloride pH 8.5. EDC, NHS and ethanolamine hydrochloride were obtained from Biacore. On one chip, on channels 1 to 4, buffer (reference channel), the soluble extracellular part of receptor for advanced glycation endproducts (sRAGE), tPA and K2P-tPA were immobilized. […] Binding of albumin-AGE was determined with a solution of 3.9 μg ml^−1 albumin-AGE in running buffer. albumin-AGE was filtered on a Millex-GV 0.22 μm filter unit (Millipore). […] Binding of Hb-AGE was also tested after centrifugation for 10 min. at 16,000*g alternative to filtration. tPA activation before and after filtration was assessed with a Plg-activation assay. […]

tPA [5] = molecular target: T3, tPA; experiment: Plasminogen-activation assay (tPA activation, S-2251); type: biochemical; conditions: 100 μg ml^−1
Experimental: Plasmin (Pls) activity was assayed as described^16. Peptides and proteins that were tested for their stimulatory ability were regularly used at 100 μg ml^−1. […] Chromogenic substrate S-2251 (Chromogenix, Instrumentation Laboratory SpA, Milano, Italy) was used to measure Pls activity. Conversion of zymogen factor XII (#233490, Calbiochem, EMD Biosciences, Inc., San Diego, Calif.) to proteolytically active factor XII (factor XIIa) was assayed by measurement of the conversion of chromogenic substrate Chromozym-PK (Roche Diagnostics, Almere, The Netherlands) by kallikrein. Chromozym-PK was used at a concentration of 0.3 mM. Factor XII, human plasma prekallikrein (#529583, Calbiochem) and human plasma cofactor high-molecular weight kininogen (#422686, Calbiochem) were used at concentrations of 1 μg ml^−1. […] Assays were performed using microtiter plates (Costar, Cambridge, Mass., USA). Peptides and proteins were tested for their ability to activate factor XII. 150 μg ml^−1 kaolin, an established activator of factor XII was used as positive control and solvent (H2O) as negative control. The conversion of Chromozym-PK was recorded kinetically at 37° C. for at least 60 minutes. Assays were done in duplicate.
as §1
To prepare structurally altered ovalbumin (OVA) with amyloid cross-β structures, purified OVA (Sigma, A-7641, lot 071k7094) was heated to 85° C. One mg ml^−1 OVA in 67 mM NaPi buffer pH 7.0, 100 mM NaCl, was heated for two cycles in PCR cups in a PTC-200 thermal cycler (MJ Research, Inc., Waltham, Mass., USA). In each cycle, OVA was heated from 30 to 85° C. at a rate of 5° C./min. Native OVA (nOVA) and heat-denatured OVA (dOVA) were tested in the ThT fluorescence assay and in the Plg-activation assay. In the fluorescence assay and in the Plg-activation assay, 25 and 100 μg ml^−1 nOVA and dOVA were tested, respectively. TEM images of nOVA and dOVA were taken to check for the presence of large aggregates.
MSA (#126674, Calbiochem) was dissolved in 8 M urea, 100 mM Tris-HCl pH 8.2, at 10 mg ml^−1 final concentration. Dithiothreitol (DTT) was added to a final concentration of 10 mM. Air was replaced by N2 and the solution was incubated for 2 h at room temperature. Then, the solution was transferred to ice and iodoacetamide was added from a 1 M stock to a final concentration of 20 mM. […] Alkyl-MSA was dialyzed against H2O before use. […] In the ThT-fluorescence assay 25 μg ml^−1 nMSA and alkyl-MSA were tested, and in the Plg-activation assay 100 μg ml^−1 was tested. The presence of aggregates or fibrils was analyzed using TEM.
Lyophilized sterile glucagon was dissolved at 1 mg ml^−1 in H2O with 10 mM HCl. The solution was subsequently kept at 37° C. for 24 h, at 4° C. for 14 days and again at 37° C. for 9 days. […] TEM analysis was performed to assess the presence of large multimeric structures.

**Q.** Which results are given for `Nc1c(/N=N/c2ccc(-c3ccc(/N=N/c4cc(S(=O)(=O)O)c5ccccc5c4N)cc3)cc2)cc(S(=O)(=O)O)c2ccccc12` [Congo red]?
**A.** inhibition at 200 µM (platelets; Homo sapiens, Platelet, 200 μM, read-out: inhibition of platelet aggregation): ≤ 30%; influence on binding of LRP cl-IV to BSA-AGE [1]: inhibit binding of LRP cl-IV to BSA-AGE to a large extent; competition for tPA binding to amyloid-like aggregates [2]: can efficiently compete for tPA binding

**Q.** With Gelatin as the molecule, how does the “activation of factor XII” value (factor XII; kept at 37° C.) read?
**A.** activated factor XII

**Q.** What about the “activation of the factor XII/prekallikrein contact system” value (factor XII; stored at 4° C.) of the same molecule?
**A.** not

**Q.** And the “enhancement of Congo red fluorescence” value ([3]; stored at 4° C. and 37° C.)?
**A.** enhanced Congo red fluorescence in a storage temperature dependent manner

**Q.** And the “enhancement of Congo red fluorescence” value ([3]; stored at the recommended storage temperature of 4° C.)?
**A.** enhanced the fluorescence of Congo red

**Q.** What about the “binding of tPA” value (tPA [4]) of the same molecule?
**A.** binding of tPA was established

**Q.** Which results are given for endostatin?
**A.** binding to the Fn F4-5 doublet (Fn F4-5; Biacore, native Hb at 25 nM): bound; pKd (Fn F4-5; immobilized Fn F4-5, Biacore CM5 chip, read-out: concentration of ligand that results in half maximum binding to Fn F4-5): ≥ 6.10 and 6.10; tPA activating properties (tPA [5]): absence of tPA activating properties

**Q.** Which “inhibition of thrombin-induced aggregation” value (platelets; 1 μM) does the source give for tPA: tissue-type plasminogen activator here?
**A.** 55%
